In ChEMBL document CHEMBL1148258, “Synthesis of OSW-1 analogs with modified side chains and their antitumor activities” (Bioorg Med Chem Lett, 2004) one finds IC50 data, which are given here for six molecules.

Format in all cases: functional, cell-based
One test relates to MCF7. Put plainly: In vitro antitumor activity of compound against MCF-7 cell line (human breast cancer cells).
The next test relates to AGS. Put plainly: In vitro antitumor activity of compound against AGS cell line (human stomach cancer cells).
A further test relates to BEL-7404 tumor cell line. Put plainly: In vitro antitumor activity of compound against 7404 cell line (human liver carcinoma cells).

One may read the pIC50 as −log10 of the IC50, conventionally taken in molar units.

pIC50: −log10 of the molar value.

As to `COc1ccc(C(=O)OC2C(OC3C(O)COC(O[C@H]4CC5C6CC=C7C[C@@H](O)CC[C@]7(C)C6CC([C@H](C)C(=O)CCC(C)C)[C@]5(C)[C@@H]4O)C3OC(C)=O)OCC(O)C2O)cc1` (stereo partly drawn), the pIC50 with MCF7 (Homo sapiens, MCF7) is 6.57; in the test on AGS (Homo sapiens, AGS), 5.85; in the test with BEL-7404 tumor cell line (Homo sapiens, BEL-7404) it was 7.00.

Take `COc1ccc(C(=O)OC2C(OC3C(O)COC(O[C@H]4CC5C6CC=C7C[C@@H](O)CC[C@]7(C)C6CC([C@H](C)CCCC(C)C)[C@]5(C)[C@@H]4O)C3OC(C)=O)OCC(O)C2O)cc1` (stereo partly drawn): the pIC50 is 7.22 in the test on MCF7 (Homo sapiens, MCF7); 5.86 in the test on AGS (Homo sapiens, AGS); 7.20 in the test on BEL-7404 tumor cell line (Homo sapiens, BEL-7404).

For `CCCC(=O)[C@@H](C)C1CC2C(CC=C3C[C@@H](O)CC[C@@]32C)C2C[C@H](OC3OCC(O)C(OC4OCC(O)C(O)C4OC(=O)c4ccc(OC)cc4)C3OC(C)=O)[C@@H](O)[C@]21C` (stereo partly drawn), the pIC50 in the test with MCF7 (Homo sapiens, MCF7) is 7.70; in the test on AGS (Homo sapiens, AGS) it was 5.72; with BEL-7404 tumor cell line (Homo sapiens, BEL-7404) it was 7.49.

Regarding `COc1ccc(C(=O)OC2C(OC3C(O)COC(O[C@H]4CC5C6CC=C7C[C@@H](O)CC[C@]7(C)C6CC([C@H](C)C(O)CCC(C)C)[C@]5(C)[C@@H]4O)C3OC(C)=O)OCC(O)C2O)cc1` (stereo partly drawn), the pIC50 in the test with MCF7 (Homo sapiens, MCF7) was 5.75; with AGS (Homo sapiens, AGS), 5.14; with BEL-7404 tumor cell line (Homo sapiens, BEL-7404), 5.73.

Turning to `COc1ccc(C(=O)OC2C(OC3C(O)COC(O[C@H]4CC5C6CC=C7C[C@@H](O)CC[C@]7(C)C6CC([C@H](C)C(C)=O)[C@]5(C)[C@@H]4O)C3OC(C)=O)OCC(O)C2O)cc1` (stereo partly drawn), the pIC50 is 5.18 in the test with MCF7 (Homo sapiens, MCF7); 5.16 with AGS (Homo sapiens, AGS); 5.54 in the test on BEL-7404 tumor cell line (Homo sapiens, BEL-7404).

For the molecule CISPLATIN, the values for the pIC50 in the test on MCF7 (mcf7), in the test on AGS (ags) and in the test with BEL-7404 tumor cell line (bel-7404) were 4.73, 4.62 and 5.08, respectively.
